Where two headings read alike, the source gives them in different places.
Assays:
[1] = cited from earlier work
[2] = Plasma stability assay, rat plasma; format: in vitro ADME; settings: 10 μM, 37° C.
In short: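 Read-out: percent parent compound remaining, by HPLC-MS, duplicate incubations. Dog/monkey/human: 2 μM test compound, 1% solvent final, 37 °C, time points 0, 10, 30, 60, 120 min. Rat: time points 0, 15, 120, 480, 1440 min.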

[3] = Plasma stability assay, dog plasma; format: in vitro ADME; settings: 2 μM, 37° C.
Protocol: (§1) Plasma stability determination of the test compounds in rat, dog, cynomolgus monkey and human plasma is performed using HPLC-MS. For rat, incubations are carried out in 96-well polypropylene plates in 5 aliquots of 70 μL each (one for each time point). […] Five time points are analyzed (0, 15, 120, 480 and 1440 min). […] All incubations are performed in duplicates. The samples are analyzed by HPLC-MS. The percentage of parent compound remaining after incubation in plasma is determined.

[4] = Plasma stability assay, monkey plasma; format: in vitro ADME, cynomolgus monkey; settings: 2 μM, 37° C.
Protocol: as §1

[5] = Plasma stability assay, human plasma; format: in vitro ADME; settings: 2 μM, 37° C.
Protocol: as §1

[6] = Liver S9 fraction stability, dog; format: in vitro ADME; settings: dog liver S9, 1.0 mg/ml S9 protein, 2 μM, 37° C.
Protocol: (§2) Liver S9 fraction stability determination of the test compounds in dog, cynomolgus monkey and human is performed using HPLC-MS. Test compound (2 μM, 0.1% DMSO, 1% Methanol final concentration) was assessed for stability in a 50 μl phosphate buffer containing 1.0 mg/ml S9 protein from each of the three species and 5 mM D-saccharic acid-1, 4-lactone. Samples were incubated at 37° C. for 60 minutes and the % compound remaining was assessed.

[7] = Liver S9 fraction stability, monkey; format: in vitro ADME, cynomolgus monkey; settings: monkey liver S9, 1.0 mg/ml S9 protein, 2 μM, 37° C.
Protocol: as §2

[8] = Liver S9 fraction stability, human; format: in vitro ADME; settings: human liver S9, 1.0 mg/ml S9 protein, 2 μM, 37° C.
Protocol: as §2

DOR = molecular target: T1, DOR (Homo sapiens, UniProt P41143); assay: Opioid receptor binding assay, DOR ([3H]-DADLE); settings: MaxDose 10000 nM
T1 construct: expressed in transfected cells
T1 sequence (P41143 whole entry): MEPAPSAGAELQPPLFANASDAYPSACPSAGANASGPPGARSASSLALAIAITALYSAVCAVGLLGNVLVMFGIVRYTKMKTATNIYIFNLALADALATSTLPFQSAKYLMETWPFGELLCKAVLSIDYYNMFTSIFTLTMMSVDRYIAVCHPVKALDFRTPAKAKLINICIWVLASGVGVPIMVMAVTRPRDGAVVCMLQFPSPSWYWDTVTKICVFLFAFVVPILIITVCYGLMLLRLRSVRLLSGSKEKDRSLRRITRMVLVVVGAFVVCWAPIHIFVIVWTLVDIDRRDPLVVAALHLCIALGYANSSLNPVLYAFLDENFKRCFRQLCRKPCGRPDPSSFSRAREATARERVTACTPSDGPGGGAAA
Protocol: Receptor binding assays were performed to assess the ability of compounds to inhibit binding to radiolabeled ligand.
The stable cell lines were established and prepared cell membrane obtained using these cell lines.
3) Assay Procedure 1) Transfer 1 μl of specified concentration compound to assay plate according to the plate map for nonspecific binding. Transfer 1 μl of DMSO to assay plate according to plate map for total binding. 2) Follow the plate map. Dispense 99 μl of membrane stocks into the plate. 3) Add 100 μl of radio ligand. 4) Seal the plates. Incubate at RT for 1 hour. 5) Soak the Unifilter-96 GF/C filter plates with 50 μl of 0.3% PEI per well for at least 0.5 hour at room temperature. 6) When binding assays are completed, filter the reaction mixture through GF/C plates using Perkin Elmer Filtermate Harvester, and then wash each plate for 4 times with cold wash buffer. 7) Dry the filter plates for 1 hour at 50 degrees. 8) After drying, seal the bottom of the filter plate wells using Perkin Elmer Unifilter-96 backing seal tape. Add 50 μl of Perkin Elmer Microscint 20 cocktail. Seal top of filter plates with Perkin Elmer TopSeal-A sealing film. 9) Count ^3H trapped on filter using Perkin Elmer MicroBeta2 Reader second day. 10) Analyze the data with GraphPad Prism 5. Calculate the “Inhibition [% Control]” using the equation: % Inh=(1-Background subtracted Assay value/Background subtracted HC value)*100. Results

[9] = not given; remark: listed apart in the source
[10] = Polymorph screening of solid state drug substances; settings: for Dry method and appearance: after stirring 50 °C 72 hours, dried solid; for XRPD results (Dried): dried solid after 50 °C 72 hours; for Visual observation 50° C. / Visual observation RT: target conc. 100 mg/ml
[11] = Rat pharmacokinetic studies, intramuscular; format: in vivo, male Sprague Dawley Rats; settings: 0.80 mg/kg, saline
Protocol: The purpose of this study is to determine the pharmacokinetics of test compounds in plasma, following intramuscular administration to male Sprague Dawley Rats (n=3, unless otherwise specified).
The dose formulation of 400 mg base equivalents/ml in sesame oil+1% benzyl alcohol (unless otherwise specified) was administered by intramuscular injection. The dose volume was determined by the animals' body weight determined on the morning of dosing day.
Each collected blood sample was centrifuged for 4 minutes at 4° C. and 10000 rpm for plasma collection. Plasma was collected and transferred into a pre-labeled PP tube in dry ice at each time point and precipitated immediately using ACN at a ratio of 1:4 (plasma:ACN). Centrifuged again (10 minutes, 12000 rpm) and obtain the supernatant. After terminal collection, all supernatant was stored at approximately −80° C. until bioanalysis.
LC-MS/MS methods for the quantitative determination of test compound in biological matrix were developed. […] The sample analysis was performed concurrently with a set of calibration standards and two sets of QC samples using the LC-MS/MS method.
Plasma concentration versus time data was analyzed by non-compartmental approaches using the Phoenix WinNonlin 6.3 software program. Cmax, Tmax, T1/2, AUC(0-t), AUC(0-inf), MRT(0-t), MRT(0-inf) and graphs of plasma concentration versus time profile were prepared.

[12] = heating temp. 60 °C, obs. temp. 25 °C
[13] = heating temp. 40 °C, obs. temp. 40 °C
[14] = heating temp. 60 °C, obs. temp. 40 °C

Oc1ccc2c3c1O[C@H]1[C@H](O)CC[C@@]4(O)[C@@H](C2)N(CC2CC2)CC[C@]314 [6-β-naltrexol]
time of peak plasma levels after oral dosing [1]: within one hour
mean elimination half-life ([1]; oral dosing): thirteen

C=C1CC[C@@]2(O)C3Cc4ccc(OC(=O)OCCCCCCCCCCCC)c5c4[C@@]2(CCN3CC2CC2)[C@H]1O5 [Compound 6, (4aS,7aS,12bS)-3-(cyclopropylmethyl)-4a-hydroxy-7-methylene-2,3,4,4a,5,6,7,7a-octahydro-1H-4,12-methanobenzofuro[3,2-e]isoquinolin-9-yl dodecyl carbonate]
% remaining at time point ([2]; 0 min): 100%
% remaining at time point ([2]; 15 min): 31.3%
% remaining at time point ([2]; 120 min): 7.6%
% remaining at time point ([2]; 480 min): 4%
% remaining at time point ([2]; 1440 min): 1.6%
% remaining at time point ([3]; 0 min): 100%
% remaining at time point ([3]; 15 min (head)): 89.1%
% remaining at time point ([3]; 120 min (head)): 96.9%
% remaining at time point ([3]; 480 min (head)): 107.2%
% remaining at time point ([3]; 1440 min (head)): 101.2%
% remaining at time point ([4]; 0 min): 100%
% remaining at time point ([4]; 15 min (head)): 88.7%
% remaining at time point ([4]; 120 min (head)): 74.3%
% remaining at time point ([4]; 480 min (head)): 68.4%
% remaining at time point ([4]; 1440 min (head)): 70.1%
% remaining at time point ([5]; 0 min): 100%
% remaining at time point ([5]; 15 min (head)): 97.6%
% remaining at time point ([5]; 120 min (head)): 102%
% remaining at time point ([5]; 480 min (head)): 109.8%
% remaining at time point ([5]; 1440 min (head)): 115.1%
% remaining at 60 minutes [6]: 17.1%
% remaining at 60 minutes [7]: 0%
% remaining at 60 minutes [8]: 5.3%
% Inh@MaxDose (DOR): 70.9%
Approximate Solubility (mg/mL) in Excipient: Cottonseed oil [12]: >397 mg/mL
Approximate Solubility (mg/mL) in Excipient: Ethanol [13]: 120 to 170 mg/mL
Approximate Solubility (mg/mL) in Excipient: Sesame oil [13]: >402.8 mg/mL
Approximate Solubility (mg/mL) in Excipient: Sesame oil [12]: >386 mg/mL

C=C1CC[C@@]2(O)C3Cc4ccc(OC(=O)NC(C)(C)C)c5c4[C@@]2(CCN3CC2CC2)[C@H]1O5 [Compound 40, (4aS,7aS,12bS)-3-(cyclopropylmethyl)-4a-hydroxy-7-methylene-2,3,4,4a,5,6,7,7a-octahydro-1H-4,12-methanobenzofuro[3,2-e]isoquinolin-9-yl tert-butylcarbamate]
melting point [9]: 107.6 °C
Dry method and appearance ([10]; Acetone): Evaporation/white powder
XRPD results (Dried) ([10]; Acetone): Amorphous
Visual observation 50° C. ([10]; Acetone): Clear
Visual observation RT ([10]; Acetone): Slurry
Dry method and appearance ([10]; EtOAc): Evaporation/white powder
XRPD results (Dried) ([10]; EtOAc): Pattern A
Visual observation 50° C. ([10]; EtOAc): Clear
Visual observation RT ([10]; EtOAc): Slurry
Dry method and appearance ([10]; Heptane): Centrifugation/white powder
XRPD results (Dried) ([10]; Heptane): Pattern A
Visual observation 50° C. ([10]; Heptane): Slurry
Visual observation RT ([10]; Heptane): Slurry
Dry method and appearance ([10]; Isopropanol): Evaporation/oil
XRPD results (Dried) ([10]; Isopropanol): Amorphous
Visual observation 50° C. ([10]; Isopropanol): Clear
Visual observation RT ([10]; Isopropanol): Slurry
Dry method and appearance ([10]; MTBE): Evaporation/white powder
XRPD results (Dried) ([10]; MTBE): Amorphous
Visual observation 50° C. ([10]; MTBE): Clear
Visual observation RT ([10]; MTBE): Clear

C=C1CC[C@@]2(O)C3Cc4ccc(OCOC(=O)CCCCCCCCCCCCC)c5c4[C@@]2(CCN3CC2CC2)[C@H]1O5 [Compound 45, (((4aS,7aS,12bS)-3-(cyclopropylmethyl)-4a-hydroxy-7-methylene-2,3,4,4a,5,6,7,7a-octahydro-1H-4,12-methanobenzofuro[3,2-e]isoquinolin-9-yl)oxy)methyl tetradecanoate]
% Inh@MaxDose (DOR): 73.8%
Approximate Solubility (mg/mL) in Excipient: Cottonseed oil [12]: >402 mg/mL
Approximate Solubility (mg/mL) in Excipient: Sesame oil [12]: 267 to 288 mg/mL
Equilibrium solubility (mg/mL) Water (Water, heating temp. 40 °C, obs. temp. 40 °C): <0.001 mg/mL

C=C1CC[C@@]2(O)C3Cc4ccc(OC(=O)CCCCCCCCCCCCCCC)c5c4[C@@]2(CCN3CC2CC2)[C@H]1O5 [Compound 56, (4aS,7aS,12bS)-3-(cyclopropylmethyl)-4a-hydroxy-7-methylene-2,3,4,4a,5,6,7,7a-octahydro-1H-4,12-methanobenzofuro[3,2-e]isoquinolin-9-yl palmitate]
% remaining at time point ([2]; 0 min): 100%
% remaining at time point ([2]; 15 min): 73.1%
% remaining at time point ([2]; 120 min): 56.7%
% remaining at time point ([2]; 480 min): 35.8%
% remaining at time point ([2]; 1440 min): 16.8%
melting point [9]: 48.95 °C
Approximate Solubility (mg/mL) in Excipient: Cottonseed oil [12]: <50 mg/mL
Approximate Solubility (mg/mL) in Excipient: Cottonseed oil [14]: 25 to 50 mg/mL
Approximate Solubility (mg/mL) in Excipient: Ethanol [14]: <40.4 mg/mL
Approximate Solubility (mg/mL) in Excipient: Sesame oil [12]: <50 mg/mL
Approximate Solubility (mg/mL) in Excipient: Sesame oil [14]: 25 to 50 mg/mL

C=C1CC[C@@]2(O)C3Cc4ccc(O)c5c4[C@@]2(CCN3CC2CC2)[C@H]1O5.Cl [Nalmefene HCl-IR]
AUC0-inf (ng · h/mL) nalmefene [11]: 66.0 ng·h/mL
Terminal Half-life t1/2 (hour) nalmefene [11]: 0.87 h
